From patent US20180370927A1, “MICROBIOCIDAL OXADIAZOLE DERIVATIVES” (SYNGENTA PARTICIPATIONS AG, priority 2015, published 2018)
Like-named read-outs stand apart in the source and are kept apart here.

Columns and labels:
[1] = test system: Puccinia recondita f. Sp. Tritici; test: Puccinia recondita f. sp. tritici / wheat / leaf disc curative (brown rust); format: in vivo; conditions: foliar, read-out: disease control compared to untreated control leaf disks
In short: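 Wheat cv. Kanzler leaf segments on agar were inoculated with spores, kept dark at 19° C, 75% RH, then sprayed with diluted formulated compound 1 day after inoculation (curative). Incubation continued at 19° C, 75% RH, 12 h light/12 h dark, with percent disease control versus untreated scored 6 to 8 days after application.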

[2] = test system: Puccinia recondita f. Sp. Tritici; test: Puccinia recondita f. sp. tritici / wheat / leaf disc preventative (brown rust); format: in vivo; conditions: foliar, read-out: disease control compared to untreated control leaf disks
In short: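 Wheat cv. Kanzler leaf segments on agar sprayed with formulated compound in water, inoculated with rust spores 1 day later. Incubated at 19° C, 75% rh, 12 h light/12 h dark; percent disease control versus untreated scored 7 to 9 days after application; tested at 200 ppm.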

[3] = test system: Glomerella lacenarium (Colletotrichum lacenarium); test: Glomerella lacenarium (Colletotrichum lacenarium) liquid culture / cucumber / preventative (anthracnose); format: cell-based; conditions: read-out: disease control (inhibition of growth, photometric) compared to untreated control
In short: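 Cryostored conidia in potato dextrose broth added to DMSO compound solution in microtiter plates, incubated at 24° C. Growth inhibition read photometrically 3 to 4 days after application, as percent control versus untreated check; compounds tested at 20 ppm.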

Phakopsora pachyrhizi = Phakopsora pachyrhizi / soybean / leaf disc preventative (Asian soybean rust); format: in vivo; conditions: foliar, 200 ppm in the applied formulation, soybean leaf disks, assessed 12 to 14 days after application, read-out: disease control compared to untreated control leaf disks
In short: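 Soybean leaf discs on water agar were sprayed with formulated compound diluted in water, then inoculated one day later with spore suspension on the lower leaf surface. Held 24-36 h dark at 20° C., 75% RH, then 12 h light/day; percent disease control versus untreated scored 12 to 14 days after application.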

[4] = 200 ppm in the applied formulation, wheat leaf segments, curative (applied 1 day after inoculation), assessed 6 to 8 days after application
[5] = 200 ppm in the applied formulation, wheat leaf segments, preventative, assessed 7 to 9 days after application
[6] = 20 ppm in the applied formulation, liquid culture in PDB, 24° C., 3 to 4 days after application

SMILES	pest or weed control at 200 ppm [1, 4] [%]	melting point [°C]	pest or weed control at 200 ppm [2, 5] [%]	inhibition at 20 ppm [3, 6] [%]	pest or weed control at 200 ppm (Phakopsora pachyrhizi) [%]	inhibition at 20 ppm [3] [%]	pest or weed control at 200 ppm [1] [%]	pest or weed control at 200 ppm [2] [%]
CC(=O)C(=O)NCc1ccc(-c2noc(C(F)(F)F)n2)cc1 [Compound 1.35, 2-oxo-N-[[4-[5-(trifluoromethyl)-1,2,4-oxadiazol-3-yl]phenyl]methyl]propanamide]	≥ 80	75.8 to 77.5	≥ 80	≥ 80	≥ 80	–	–	–
CO/N=C(\C)C(=O)NCc1ccc(-c2noc(C(F)(F)F)n2)cc1 [Compound 2.9, (2E)-2-methoxyimino-N-[[4-[5-(trifluoromethyl)-1,2,4-oxadiazol-3-yl]phenyl]methyl] propanamide]	≥ 80	75.7 to 76.2	≥ 80	≥ 80	≥ 80	–	–	–
CO/N=C(\C#N)C(=O)NCc1ccc(-c2noc(C(F)(F)F)n2)cc1 [Compound 2.13, (1E)-N-methoxy-2-oxo-2-[[4-[5-(trifluoromethyl)-1,2,4-oxadiazol-3-yl]phenyl]methylamino] acetimidoyl cyanide]	–	130 to 131	–	–	–	≥ 80	–	–
CO/N=C(\C#N)C(=O)N(Cc1ccc(-c2noc(C(F)(F)F)n2)cc1)OC [Compound 2.14, (1E)-N-methoxy-2-[methoxy-[[4-[5-(trifluoromethyl)-1,2,4-oxadiazol-3-yl]phenyl]methyl]amino]-2-oxo-acetimidoyl cyanide]	–	67 to 68	–	–	–	≥ 80	≥ 80	≥ 80
CCOCCOC(=O)C(=O)NCc1ccc(-c2noc(C(F)(F)F)n2)cc1 [Compound 3.4, 2-ethoxyethyl 2-oxo-2-[[4-[5-(trifluoromethyl)-1,2,4-oxadiazol-3-yl]phenyl]methylamino]acetate]	–	112 to 114	≥ 80	≥ 80	–	–	–	–
CC1CCC(OC(=O)C(=O)NCc2ccc(-c3noc(C(F)(F)F)n3)cc2)C1 (centres unmarked) [Compound 3.5, (3-methylcyclopentyl) 2-oxo-2-[[4-[5-(trifluoromethyl)-1,2,4-oxadiazol-3-yl]phenyl]methylamino]acetate]	–	112 to 116	≥ 80	≥ 80	–	–	–	–
O=C(NCc1ccc(-c2noc(C(F)(F)F)n2)cc1)C(=O)OC1CCSC1 (centres unmarked) [Compound 3.6, tetrahydrothiophen-3-yl 2-oxo-2-[[4-[5-(trifluoromethyl)-1,2,4-oxadiazol-3-yl]phenyl]methylamino]acetate]	–	102 to 105	≥ 80	≥ 80	–	–	–	–
O=C(O)C(=O)NCc1ccc(-c2noc(C(F)(F)F)n2)cc1 [Compound 3.8, 2-oxo-2-[[4-[5-(trifluoromethyl)-1,2,4-oxadiazol-3-yl]phenyl]methylamino]acetic acid]	–	162 to 173	–	–	≥ 80	–	–	–
CCOC(=O)C(=O)NCc1ccc(-c2noc(C(F)(F)F)n2)cc1 [Compound 3.9, ethyl 2-oxo-2-[[4-[5-(trifluoromethyl)-1,2,4-oxadiazol-3-yl]phenyl]methylamino] acetate]	–	112 to 116	≥ 80	≥ 80	≥ 80	–	–	–
CN(Cc1ccc(-c2noc(C(F)(F)F)n2)cc1)C(=O)C(N)=O [Compound 4.30, N′-methyl-N′-[[4-[5-(trifluoromethyl)-1,2,4-oxadiazol-3-yl]phenyl]methyl] oxamide]	≥ 80	120 to 125	≥ 80	≥ 80	≥ 80	–	–	–
CNC(=O)C(=O)N(Cc1ccc(-c2noc(C(F)(F)F)n2)cc1)OC [Compound 4.35, N′-methoxy-N-methyl-N′-[[4-[5-(trifluoromethyl)-1,2,4-oxadiazol-3-yl]phenyl]methyl] oxamide]	≥ 80	87.7 to 88.8	≥ 80	≥ 80	≥ 80	–	–	–
Cc1cc(-c2noc(C(F)(F)F)n2)ccc1NC(=O)C(=O)N(C)C [Compound 4.37, N′,N′-dimethyl-N-[2-methyl-4-[5-(trifluoromethyl)-1,2,4-oxadiazol-3-yl]phenyl]oxamide]	≥ 80	79 to 89	≥ 80	≥ 80	≥ 80	–	–	–
COCCNC(=O)C(=O)Nc1ccc(-c2noc(C(F)(F)F)n2)cc1C [Compound 4.38, N-(2-methoxyethyl)-N′-[2-methyl-4-[5-(trifluoromethyl)-1,2,4-oxadiazol-3-yl]phenyl] oxamide]	≥ 80	126 to 130	≥ 80	≥ 80	≥ 80	–	–	–
O=C(NCc1ccc(-c2noc(C(F)(F)F)n2)cc1)C(=O)N1CCCCC1 [Compound 4.40, 2-oxo-2-(1-piperidyl)-N-[[4-[5-(trifluoromethyl)-1,2,4-oxadiazol-3-yl]phenyl]methyl] acetamide]	≥ 80	104 to 108	≥ 80	≥ 80	≥ 80	–	–	–
CON1CCC(N(C)C(=O)C(=O)NCc2ccc(-c3noc(C(F)(F)F)n3)cc2)CC1 [Compound 4.44, N′-(1-methoxy-4-piperidyl)-N′-methyl-N-[[4-[5-(trifluoromethyl)-1,2,4-oxadiazol-3-yl]phenyl]methyl] oxamide]	≥ 80	123 to 125	≥ 80	≥ 80	≥ 80	–	–	–
CCN(Cc1ccc(-c2noc(C(F)(F)F)n2)cc1)C(=O)C(=O)N(C)OC [Compound 4.106, N′-ethyl-N-methoxy-N-methyl-N′-[[4-[5-(trifluoromethyl)-1,2,4-oxadiazol-3-yl]phenyl]methyl] oxamide]	≥ 80	–	≥ 80	≥ 80	≥ 80	–	–	–
